Results taken from US20250145589A1, “PYRIDINE DERIVATIVE AND USE THEREOF” (SICHUAN HUIYU PHARMACEUTICAL CO., LTD., priority 2021, published 2025).
Where two headings read alike, the source gives them in different places.

What was measured:
[1] = system: NCI-H358 cells (KRAS G12C mutant); assay: NCI-H358 cell proliferation inhibition (CellTiter-Glo); format: cell-based; conditions: Homo sapiens, NCI-H358, 72 h; H358 cells (G12C mutation), 3 days, Table 6; read-out: NCI-H358 (IC50)
[2] = system: MIA PaCa-2 cells (KRAS G12C mutant); assay: MIA PaCa-2 cell anti-proliferation (CellTiter-Glo); format: cell-based; conditions: Homo sapiens, 72 h; MIA Paca-2 cells, 3 days, Table 7; read-out: MIA PaCa-2 (IC50)
Experimental: The number of viable cells was determined using the CellTiter-Glo® assay to evaluate the anti-proliferation efficacy of compounds. […] The compounds were serially diluted 4-fold in DMSO to obtain 9 concentrations, and then further diluted with DMEM (10% FBS+2.5% horse serum+1% penicillin/streptomycin) cell culture medium to obtain the working solutions (2×), 15 μL of each working solution was added to the cell culture supernatant in each well, and the cells were further incubated for 3 days at 37° C. with 5% CO2. The plate was then equilibrated with CellTiter-Glo® reagent at room temperature (25° C.) for 30 minutes. After adding 25 μL of CellTiter-Glo®, reagent, the cells were thoroughly mixed with the CellTiter-Glo® reagent using a microplate shaker for 2 minutes, and then incubated at room temperature for at least 30 minutes. […] Data were analyzed using GraphPad Prism for IC50 values (Note: The negative control refers to the group without inhibitor).

PI3Kα = PI3Kα (Homo sapiens (Human), UniProt P42336); assay: Inhibition of PI3Kα efficacy assay (ADP-Glo kinase assay); format: biochemical; conditions: read-out: PI3Kα inhibitory activity (IC50)
How it was run: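 ADP-Glo luminescent detection of ADP from PI3Kα acting on PI substrate with ATP, 60 min at RT; compounds in 8-point five-fold serial dilution from 2 mM DMSO stock. IC50 from four-parameter variable-slope fit.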

PI3Kδ = PI3Kδ (Homo sapiens (Human), UniProt O00329); assay: Inhibition of PI3Kδ efficacy assay (ADP-Glo kinase assay); format: biochemical; conditions: Table 2; read-out: PI3Kδ inhibitory activity (IC50)
How it was run: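 Luminescent ADP-Glo readout of PI3Kδ: after a 60 min RT reaction with PI/ATP substrate, ATP depletion (40 min) and ADP detection (40 min) steps followed. Compounds tested as eight five-fold serial dilutions; inhibition rates fitted to log(inhibitor) vs. response, variable slope, for IC50.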

Sequence of PI3Kα (P42336 whole entry): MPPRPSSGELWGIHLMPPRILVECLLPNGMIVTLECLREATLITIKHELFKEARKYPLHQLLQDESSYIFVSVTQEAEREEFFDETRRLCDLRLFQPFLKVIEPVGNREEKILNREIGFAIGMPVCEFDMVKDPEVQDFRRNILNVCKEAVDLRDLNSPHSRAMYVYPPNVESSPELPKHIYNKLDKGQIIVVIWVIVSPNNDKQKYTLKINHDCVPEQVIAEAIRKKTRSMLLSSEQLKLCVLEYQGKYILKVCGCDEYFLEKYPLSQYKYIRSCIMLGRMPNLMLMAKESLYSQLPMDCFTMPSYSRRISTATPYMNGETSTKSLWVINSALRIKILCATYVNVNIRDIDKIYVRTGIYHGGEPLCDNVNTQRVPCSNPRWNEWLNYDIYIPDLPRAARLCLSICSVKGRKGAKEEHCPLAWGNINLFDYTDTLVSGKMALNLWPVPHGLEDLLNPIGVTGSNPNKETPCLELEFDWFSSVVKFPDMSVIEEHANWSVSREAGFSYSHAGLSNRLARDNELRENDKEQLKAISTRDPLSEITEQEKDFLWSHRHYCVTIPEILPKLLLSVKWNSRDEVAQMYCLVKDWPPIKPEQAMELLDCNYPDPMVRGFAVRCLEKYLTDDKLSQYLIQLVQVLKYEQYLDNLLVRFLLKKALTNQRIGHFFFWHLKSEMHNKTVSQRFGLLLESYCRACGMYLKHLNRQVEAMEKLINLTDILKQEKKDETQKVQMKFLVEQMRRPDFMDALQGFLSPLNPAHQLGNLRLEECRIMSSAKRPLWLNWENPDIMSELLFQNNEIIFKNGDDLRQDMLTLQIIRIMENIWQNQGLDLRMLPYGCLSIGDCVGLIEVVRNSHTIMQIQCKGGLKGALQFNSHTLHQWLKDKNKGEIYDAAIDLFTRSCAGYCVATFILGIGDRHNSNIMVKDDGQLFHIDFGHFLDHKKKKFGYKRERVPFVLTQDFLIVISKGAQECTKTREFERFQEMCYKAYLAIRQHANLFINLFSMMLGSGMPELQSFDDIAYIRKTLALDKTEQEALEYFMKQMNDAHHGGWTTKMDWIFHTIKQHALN
Sequence of PI3Kα (P27986 whole entry partner): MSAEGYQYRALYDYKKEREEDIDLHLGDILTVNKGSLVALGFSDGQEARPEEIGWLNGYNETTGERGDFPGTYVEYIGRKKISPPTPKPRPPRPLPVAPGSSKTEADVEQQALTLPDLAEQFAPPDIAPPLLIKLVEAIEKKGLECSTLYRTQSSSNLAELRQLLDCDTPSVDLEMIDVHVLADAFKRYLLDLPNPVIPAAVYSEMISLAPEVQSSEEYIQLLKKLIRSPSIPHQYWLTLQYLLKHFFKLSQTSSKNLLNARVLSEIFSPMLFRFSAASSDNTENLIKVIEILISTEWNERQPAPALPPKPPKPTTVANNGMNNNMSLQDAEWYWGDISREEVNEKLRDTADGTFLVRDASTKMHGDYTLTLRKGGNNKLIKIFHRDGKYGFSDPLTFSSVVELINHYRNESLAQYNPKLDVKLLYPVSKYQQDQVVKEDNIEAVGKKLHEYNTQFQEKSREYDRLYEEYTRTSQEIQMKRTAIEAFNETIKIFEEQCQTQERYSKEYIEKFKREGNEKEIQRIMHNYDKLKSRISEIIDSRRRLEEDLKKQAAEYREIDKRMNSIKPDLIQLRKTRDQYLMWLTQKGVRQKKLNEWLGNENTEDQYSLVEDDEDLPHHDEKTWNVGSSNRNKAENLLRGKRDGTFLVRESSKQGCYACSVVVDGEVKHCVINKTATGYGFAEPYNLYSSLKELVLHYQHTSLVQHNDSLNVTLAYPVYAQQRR
Sequence of PI3Kδ (O00329 whole entry): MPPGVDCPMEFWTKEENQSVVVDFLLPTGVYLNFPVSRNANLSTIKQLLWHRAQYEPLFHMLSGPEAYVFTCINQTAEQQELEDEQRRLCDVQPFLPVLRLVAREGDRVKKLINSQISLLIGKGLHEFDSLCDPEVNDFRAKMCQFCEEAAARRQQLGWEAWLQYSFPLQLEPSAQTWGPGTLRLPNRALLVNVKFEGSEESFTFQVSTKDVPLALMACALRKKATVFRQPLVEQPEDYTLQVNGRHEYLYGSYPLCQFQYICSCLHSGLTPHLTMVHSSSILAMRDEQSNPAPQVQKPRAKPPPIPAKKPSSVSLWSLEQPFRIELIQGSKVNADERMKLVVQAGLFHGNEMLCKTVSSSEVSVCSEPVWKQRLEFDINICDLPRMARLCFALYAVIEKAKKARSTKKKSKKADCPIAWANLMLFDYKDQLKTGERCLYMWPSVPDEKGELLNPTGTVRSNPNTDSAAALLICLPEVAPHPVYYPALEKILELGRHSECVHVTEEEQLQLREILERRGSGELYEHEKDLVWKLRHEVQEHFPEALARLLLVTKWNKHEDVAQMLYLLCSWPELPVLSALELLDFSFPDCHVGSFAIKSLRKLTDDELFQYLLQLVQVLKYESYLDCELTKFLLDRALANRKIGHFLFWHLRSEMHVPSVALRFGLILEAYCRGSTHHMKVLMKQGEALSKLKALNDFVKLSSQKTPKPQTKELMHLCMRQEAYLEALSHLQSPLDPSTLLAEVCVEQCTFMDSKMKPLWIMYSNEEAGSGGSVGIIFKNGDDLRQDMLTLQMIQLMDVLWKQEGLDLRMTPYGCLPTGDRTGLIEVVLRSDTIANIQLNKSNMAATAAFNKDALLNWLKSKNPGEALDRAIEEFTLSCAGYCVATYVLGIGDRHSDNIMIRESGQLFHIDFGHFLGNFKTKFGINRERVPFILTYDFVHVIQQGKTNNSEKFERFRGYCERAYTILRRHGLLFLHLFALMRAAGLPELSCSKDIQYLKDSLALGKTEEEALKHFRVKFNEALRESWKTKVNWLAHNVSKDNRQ
Sequence of PI3Kδ (P27986 whole entry partner): as the sequence (P27986 whole entry partner) above

SMILES | IC50 [1] [nM] | IC50 [2] [nM] | IC50 (PI3Kα; Table 4) [nM] | IC50 (PI3Kδ) [nM] | IC50 (PI3Kα; Table 2) [nM]
CC(=O)/C=C/C(=O)N1CCN(c2ncnc3ccc(-c4cnc(OC(F)F)c(NS(=O)(=O)c5ccc(F)cc5F)c4)cc23)CC1 [Example 208, (E)-N-(2-(difluoromethoxy)-5-(4-(4-(4-oxopent-2-enoyl)piperazin-1-yl)quinazoline-6-yl)pyridin-3-yl)-2,4-difluorobenzenesulfonamide] | 1060 | 1040 | 30.6 |  | 
CCC(=O)/C=C/C(=O)N1CCN(c2ncnc3ccc(-c4cnc(OC)c(NS(=O)(=O)c5c(F)cccc5F)c4)nc23)CC1 [Example 212, (E)-2,6-difluoro-N-(2-methoxy-5-(4-(4-(4-oxohex-2-enoyl)piperazin-1-yl)pyrido[3,2-d]pyrimidin-6-yl)pyridin-3-yl) benzene-sulfonamide] | 15.2 | 14 | 3.8 |  | 
COc1ncc(-c2ccc3ncnc(N4CCN(C(=O)/C=C/C(C)=O)C[C@@H]4C)c3n2)cc1NS(=O)(=O)c1c(F)cccc1F [Example 138, (S,E)-2,6-difluoro-N-(2-methoxy-5-(4-(2-methyl-4-(4-oxopent-2-enoyl)piperazin-1-yl)pyrido[3,2-d]pyrimidin-6-yl)pyridin-3-yl)benzenesulfonamide] |  | 10.5 |  |  | 
COc1ncc(-c2ccc3ncnc(N4CCN(C(=O)/C=C/CF)CC4)c3n2)cc1NS(=O)(=O)c1c(F)cccc1F [Example 213, (E)-2,6-difluoro-N-(5-(4-(4-(4-fluorobut-2-enoyl)piperazin-1-yl)pyrido[3,2-d]pyrimidine-6-yl)-2-methoxy-pyridin-3-yl) benzene-sulfonamide] | 14.3 | 16.4 | 9.8 |  | 
C=CS(=O)(=O)N1CCN(c2ncnc3ccc(-c4cnc(OC)c(NS(=O)(=O)c5ccc(F)cc5F)c4)cc23)CC1 [Example 207, 2,4-difluoro-N-(2-methoxy-5-(4-(4-(vinylsulfonyl)piperazin-1-yl)quinazolin-6-yl)pyridin-3-yl)benzenesulfonamide] | 40 | 73.3 |  |  | 
CC(=O)/C=C/C(=O)N1CCN(c2ncnc3ccc(-c4cnc(C(F)(F)F)c(NS(=O)(=O)c5ccc(F)cc5F)c4)cc23)CC1 [Example 192, (E)-2,4-difluoro-N-(5-(4-(4-(4-oxopent-2-enoyl)piperazin-1-yl)quinazolin-6-yl)-2-(tri-fluoromethyl)pyridin-3-yl) benzene-sulfonamide] | 782 | 827 | 9.3 |  | 
COc1ncc(-c2ccc3ncnc(N4CCN(C(=O)/C(C#N)=C/C(C)(C)C)CC4)c3c2)cc1NS(=O)(=O)c1ccc(F)cc1F [Example 180, (E)-N-(5-(4-(4-(2-cyano-4,4-dimethyl-pent-2-enoyl)piperazin-1-yl)quinazolin-6-yl)-2-methoxy-pyridin-3-yl)-2,4-difluoro-benzene-sulfonamide] | 114 | 45.2 | 1.8 |  | 
COc1ncc(-c2ccc3ncnc(N4CCN(C(=O)/C=C/C(F)(F)F)CC4)c3n2)cc1NS(=O)(=O)c1c(F)cccc1F [Example 216, (E)-2,6-difluoro-N-(2-methoxy-5-(4-(4-(4,4,4-trifluorobut-2-enoyl)piperazin-1-yl)pyridino [3,2-d]pyrimidin-6-yl)pyridin-3-yl)benzene-sulfonamide] | 56 | 47.7 | 1 |  | 
CCOc1ncc(-c2ccc3ncnc(N4CCN(C(=O)/C=C/C(C)=O)CC4)c3c2)cc1NS(=O)(=O)c1ccccc1F [Example 190, (E)-N-(2-ethoxy-5-(4-(4-(4-oxopent-2-enoyl)piperazin-1-yl)quinazolin-6-yl)pyridin-3-yl)-2-fluoro-benzene-sulfonamide] | 112 | 108 | 9.5 |  | 
COc1ncc(-c2ccc3ncnc(N4CCN(C(=O)/C=C/C(C)=O)CC4)c3n2)cc1NS(=O)(=O)c1ccc(F)cc1Cl [Example 135, (E)-2-chloro-4-fluoro-N-(2-methoxy-5-(4-(4-(4-oxopent-2-enoyl)piperazin-1-yl)pyrido[3,2-d]pyrimidin-6-yl)pyridin-3-yl)benzenesulfonamide] |  | 9.1 |  |  | 
COc1ncc(-c2ccc3ncnc(N4CCN(C(=O)/C=C/C(C)=O)CC4)c3n2)cc1NS(=O)(=O)c1ccc(C(F)(F)F)cc1F [Example 221, (E)-2-fluoro-N-(2-methoxy-5-(4-(4-(4-oxopent-2-enoyl)piperazin-1-yl)pyrido[3,2-d]pyrimidin-6-yl)pyridin-3-yl)-4-(trifluoro-methyl)benzene-sulfonamide] | 42.9 | 60 | 2.2 |  | 
COc1ncc(-c2ccc3ncnc(C4=CCN(C(=O)/C=C/C(C)=O)CC4)c3n2)cc1NS(=O)(=O)c1c(F)cccc1F [Example 239, (E)-2,6-difluoro-N-(2-methoxy-5-(4-(1-(4-oxopent-2-enoyl)-1,2,3,6-tetrahydropyridin-4-yl)pyrido[3,2-d]pyrimidin-6-yl)pyridin-3-yl)benzenesulfonamide] | 55 | 70.2 | 6.4 |  | 
COc1ncc(-c2cc(F)c3ncnc(N4CCN(C(=O)/C=C/C(C)=O)CC4)c3c2)cc1NS(=O)(=O)c1ccc(F)cc1F [Example 196, (E)-2,4-difluoro-N-(5-(8-fluoro-4-(4-(4-oxopent-2-enoyl)piperazin-1-yl)quinazoline-6-yl)-2-methoxypyridin-3-yl)benzenesulfonamide] | 186 | 155 | 1.7 |  | 
COc1ncc(-c2ccc3ncnc(N4CC5CCC(C4)N5C(=O)/C=C/C(C)=O)c3n2)cc1NS(=O)(=O)c1c(F)cccc1F [Example 137, 2,6-difluoro-N-(2-methoxy-5-(4-(8-((E)-4-oxopent-2-enoyl)-3,8-diazabicyclo[3.2.1]octan-3-yl)pyrido[3,2-d]pyrimidin-6-yl)pyridin-3-yl)benzenesulfonamide] |  | 6.8 |  |  | 
COc1ncc(-c2ccc3ncnc(N4CCC5(CC4)CN(C(=O)/C=C/C(C)=O)C5)c3n2)cc1NS(=O)(=O)c1c(F)cccc1F [Example 136, (E)-2,6-difluoro-N-(2-methoxy-5-(4-(2-(4-oxopent-2-enoyl)-2,7-diazaspiro[3.5]nonan-7-yl)pyrido[3,2-d]pyrimidin-6-yl)pyridin-3-yl)benzenesulfonamide] |  | 6.6 |  |  | 
COc1ncc(-c2ccc3ncnc(N4CCN(C(=O)/C=C/C(C)=O)CC4)c3n2)cc1NS(=O)(=O)c1ccc(F)cc1 [Example 134, (E)-4-fluoro-N-(2-methoxy-5-(4-(4-(4-oxopent-2-enoyl)piperazin-1-yl)pyrido[3,2-d]pyrimidin-6-yl)pyridin-3-yl)benzenesulfonamide] |  | 19.6 |  |  | 
COc1ncc(-c2ccc3ncnc(N4CCN(C(=O)/C=C/C(F)(F)F)CC4)c3c2)cc1NS(=O)(=O)c1c(F)cccc1F [Example 44, (E)-2,6-difluoro-N-(2-methoxy-5-(4-(4-(4,4,4-trifluorobut-2-enoyl)piperazin-1-yl)quinazolin-6-yl)pyridin-3-yl) benzenesulfonamide] | 41.6 |  |  | 17.5 | 4.3
COC/C=C/C(=O)N1CCN(c2ncnc3ccc(-c4cnc(OC)c(NS(=O)(=O)c5ccc(F)cc5F)c4)cc23)CC1 [Example 64, (E)-2,4-difluoro-N-(2-methoxy-5-(4-(4-(4-methoxybut-2-enoyl)piperazin-1-yl)quinazolin-6-yl)pyridin-3-yl) benzene-sulfonamide] | 12.6 |  |  | 14.6 | 16.7
